Experimental data from PMC9369335, “Tailoring the Structure of Cell Penetrating DNA and RNA Binding Nucleopeptides” (International Journal of Molecular Sciences, 2022).
Square brackets hold non-standard residues; d marks the D form. Peptide text beside a SMILES is read from it. * marks the point of attachment. FITC = O=C1OC2(c3ccc(O)cc3Oc3cc(O)ccc32)c2ccc(NC(=S)*)cc21; Acetyl(thymin-1-yl) = Cc1cn(CC(=O)*)c(=O)[nH]c1=O; Dab = NCC[C@H](N)C(=O)O; Ahx = NCCCCCC(=O)O

Test system: HT29, CCRF-CEM and Jurkat cells
Assay: Cellular and nuclear uptake of FITC-labelled nucleopeptides by flow cytometry
Assay type: cell-based, human
Conditions: 10 µM, 3 h, 37 °C, comparison in words
Experimental: The promising results achieved with 32 and 33 in terms of DNA and RNA recognition and binding studies prompted us to investigate their capability to cross the cellular membrane and to distribute between cytoplasm and nucleus. Specifically, cell penetration experiments were carried out employing 34 and 35 (the FITC-labelled derivatives of 32 and 33, respectively) on three different cancer cell lines (Jurkat, HT29 and CEM). […]
The fluorescence of Fluorescein Isothiocyanate (FITC) (excitation 488 nm, emission 525 nm) was used to evaluate the intracellular and intranuclear nucleopeptides uptake using flow cytometry. […] To evaluate cellular uptake, the cell pellets were suspended in 500 µL of PBS and analyzed by flow cytometry. For nuclear uptake, the nuclei were extracted with PBS-Triton (0.5%) for 15 min at room temperature (RT), washed with PBS-Triton (0.1%), suspended in 500 µL of PBS and analyzed by FACS ARIA III flow cytometry (BD Bioscience, Mountain View, CA, USA) with DIVA software 8.01. […] The uptake was evaluated as mean fluorescence and was analyzed using FlowJo 10.7.1 software.

concentration in cytoplasm (cellular uptake, mean fluorescence) (1 × 10^6 cells): significantly higher than 35
concentration in nucleus (nuclear uptake, mean fluorescence) (nuclei extracted with PBS-Triton 0.5%): significantly higher than 35
SMILES: Cc1cn(CC(=O)NCC[C@H](NC(=O)CCCCCNC(=S)Nc2ccc3c(c2)C(=O)OC32c3ccc(O)cc3Oc3cc(O)ccc32)C(=O)N[C@@H](CCCNC(=N)N)C(=O)N[C@@H](CCNC(=O)Cn2cc(C)c(=O)[nH]c2=O)C(=O)N[C@@H](CCCNC(=N)N)C(=O)N[C@@H](CCNC(=O)Cn2cc(C)c(=O)[nH]c2=O)C(=O)N[C@@H](CCCNC(=N)N)C(=O)N[C@@H](CCNC(=O)Cn2cc(C)c(=O)[nH]c2=O)C(=O)N[C@@H](CCCNC(=N)N)C(=O)N[C@@H](CCNC(=O)Cn2cc(C)c(=O)[nH]c2=O)C(=O)N[C@@H](CCCNC(=N)N)C(=O)N[C@@H](CCNC(=O)Cn2cc(C)c(=O)[nH]c2=O)C(=O)N[C@@H](CCCNC(=N)N)C(N)=O)c(=O)[nH]c1=O [compound 34] ({FITC-Ahx}-[Dab](Acetyl(thymin-1-yl))R[Dab](Acetyl(thymin-1-yl))R[Dab](Acetyl(thymin-1-yl))R[Dab](Acetyl(thymin-1-yl))R[Dab](Acetyl(thymin-1-yl))R[Dab](Acetyl(thymin-1-yl))R-NH2)
